Data on one molecule can be found in patent US6017958A, “Method of treating malignant tumors with thyroxine analogues having no significant hormonal activity” (Octamer, Inc., priority 1997, dated 2000).

One experiment deals with A-549 cells. Kind of experiment: DIME action on A-549 cells with esterase inhibitor BNPP. The experiment is classed as cell-based, human. Particulars: with bis[p-nitrophenyl] phosphate.
The test system of the next experiment is CV-1-Transformed cells. Kind of experiment: cells. Particulars: 24 hours, read-out: Extracellular DIME (concentration that causes 100% growth inhibition). The experiment is classed as in vitro ADME. The protocol:
(§1) Monolayer cultures in 9.6 cm^2 wells (3 ml medium) were exposed to [^14 C]-DIME (10.55 mCi/mmol) for 24 hours, then washed 7 times with 1 ml medium containing unlabeled DIME. The cells were dissolved in 1 ml of 4% Na2 CO3 and 0.2 M NaOH and radioactivity measured by scintillation counting. Cell volume was determined by hematocrit and cell counting from parallel wells treated with unlabeled DIME.
(§2) A striking property of DIME is its apparent selectivity for tumors in vivo. We performed drug metabolism and cellular DIME uptake tests to further characterize this property. Incubation of cells in culture with [^14 DIME, under conditions described previously, Bauer et al., 1996, "Modification of growth related enzymatic pathways and apparent loss of tumorigenicity of a ras-transformed bovine endothelial cell line by treatment with 5-iodo-6-amino-1,2-benzopyrone (INH2 BP)" Intl. J. Oncol. […] As shown in Table 9 the tumorigenic transformed cells in general took up DIME more rapidly than nontransformed cells (CV-1) or cells that were less sensitive to killing-by DIME (e.g. E-ras 20). […] On the other hand homogenates of organs of normal mice actively metabolize (de-esterify) DIME as illustrated in Table 10.

Experiment [1] concerns MDA-MB-231 cells. Put plainly: cells. Particulars: Homo sapiens; MDA-MB-231, 24 hours; read-out: Extracellular DIME (concentration that causes 100% growth inhibition). The experiment is classed as in vitro ADME. On the procedure: as §1, §2
Experiment [2] concerns MDA-MB-231 cells. Kind of experiment: Chromosome analysis by in situ hybridization. Format: cell-based, human. Particulars: 1 μM. On the procedure:
The MDA-MB-231 cell line was obtained from ATCC (Rockville, Md., USA) and cells were cultured in T-75 flasks at 37° C. in Minimum Essential Medium-alpha, supplemented with 10% FCS. In controls, not receiving DIME, 0.1 μg/ml colcemid was added to cultures for 4 hrs prior to the collection of metaphase-blocked cells and preparation of cell spreads. […] Cells (10^7) were isolated from T-75 trypsinization for 5 min with 0.025% trypsin, and sedimented by centrifugation, resuspended and kept in 10 ml of 75 mM KC1 at 37° C. for 10 min, resedimented, and fixed in 10 ml methanol-acetic acid, with four successive changes of methanol-acetic acid. An aliquot of the final cell suspension (100 μl) was dropped on ethanol-cleaned slides and air-dried.
Human chromosome-specific probes were produced by ONCOR (Gaithersburg, Md., USA). Hybridization was accomplished by a modification of the procedure described by Pinkel et al., 1986, "Cytogentic Analysis Using Quantitative High-Sensitivity Fluorescence Hybridization," Proc. Natl. Acad. Sci. U.S.A. 83:2934-2938. The slide-mounted cells were treated with pepsin (20 μg/ml in 0.01 N HCl) at 37° C. for 10 min and then dehydrated in a 70%, 85% and 100% ethanol series, then DNA was denatured by immersion in 70% formamide, followed by 2X standard saline citrate (IX SSC is […], 0.015 M sodium citrate, pH 7.0) for 2 min. at 70° C., and dehydrated in ethanol as described above. The hybridization mixture in a 10 μl total volume consisted of 50% formamide, 2X SSC, 10% dextran sulfate, 0.5 μg herring sperm DNA, and 1-5 μg of proteinase K-treated human placental DNA. Both herring sperm DNA and human placental DNA were previously sonicated to 200-600 bp fragments, and -40 ng of digoxigeninylated probe DNA (denatured at 70° C. for 5 min) added, and incubated at 37° C. for 1 hr. This mixture was placed on slides containing the fixed cells, sealed under a coverslip, and incubated at 37° C. for 2 to 3 days. […] The slides were viewed in a Zeiss fluorescence microscope equipped with a multiple band pass filter (Chroma Technology, Brattleboro, Vt., USA) to determine the number of FISH signals in each nucleus.

The next experiment has as its system SK-Br-3 (mammary cancer). Kind of experiment: Cytocidal action/growth inhibition, SK-Br-3. Format: cell-based. As to conditions: Homo sapiens. On the procedure:
Seven human cancer cell lines were obtained from the American Tissue Culture Collection (Rockville, Md.) and maintained in the recommended growth media. Cells were seeded into wells (2 cm^2) at a density of 2×10^4 cells/cm^2. Various concentrations of Compounds 1-13 were added to the media at the time of seeding.
The cultures were incubated for 72 hours at 37° C. (5% CO2 atmosphere). Following incubation, cells were detached with trypsin and counted in a hemocytometer.
I100 designates the concentration at which no viable cells remained; I50 the concentration at which 50% viable cells remained, as compared to a control.
E-ras 20 cells were cultured as reported, Bauer et al., 1996, "Modification of growth related enzymatic pathways and apparent loss of tumorigenicity of a ras-transformed bovine endothelial cell line by treatment with 5-iodo-6-amino-1,2-benzopyrone (INH2 BP)" Intl. J. Oncol. 8:239-252; HT-144 (melanoma), DU-145 (prostatic cancer), HeLa (cervical cancer), HL 60 (promyelocytic leukemia), MDA-MB-231 (mammary cancer), SK-Br-3 (mammary cancer), T47D (ductal mammary cancer), A559 (lung cancer) were obtained from American Type Culture Collection (Rockville, Md.) and cultured in prescribed media. The effect of DIME was tested in cultures with a starting cell density of 2×10^4 cells per cm^2 and comparison of the effect of DIME on cell growth (intact cells identified by Trypan blue exclusion) was assayed by direct cell counting after trypsinization in a hemocytometer 72 hours after drug addition.
For DIME-exposure experiments cells were seeded into 2 cm^2 wells at a density of 2×10^4 cells/cm^2. DIME at various concentrations was added to the medium at the time of seeding. The cell cultures were then incubated for 3 days (37° C. in 5% at CO2 atmosphere).

Like-named read-outs stand apart in the source and are kept apart here.

Turning to `COC(=O)c1cc(I)c(Oc2ccc(OC)cc2)c(I)c1` [Compound 1, Methyl 3,5-diiodo-4-(4'-methoxyphenoxy)benzoate], the “cell killing with esterase inhibition” value in the experiment with A-549 cells is reported as “much more effective cell killing”. Also, the IC100 in the experiment with CV-1-Transformed cells came to 2 µM; in the experiment on MDA-MB-231 cells [1] it was 2 µM; with SK-Br-3 (mammary cancer) (SK-BR-3, 72 h, Table 4, read-out: I100 (no viable cells remained)) it was 5 µM. The “effect on chromosomes (in situ hybridization)” value in the experiment on MDA-MB-231 cells [2] (18 hrs) was “no detectable effect”. Also, the chromosome breakage result with MDA-MB-231 cells [2] (5 days) is recorded as “No evidence for chromosome breakage”. In addition, the chromosome-19 signals result in the experiment on MDA-MB-231 cells [2] (5 days, some cells) was “about 40 chromosome-19 signals”. In addition, the chromosomes per cell entry with MDA-MB-231 cells [2] (5 days, some cells) was “over 100 chromosomes”. The IC50 was 600 nM with SK-Br-3 (mammary cancer) (SK-BR-3, 72 h, day 3, Table 11, read-out: I50 (day 3)) and 600 nM in the experiment on SK-Br-3 (mammary cancer) (SK-BR-3, 72 h, Table 4, read-out: I50).
